Data on nine compounds can be found in PubChem BioAssay (NCI).

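Method: 48-hour compound exposure of cells in 96-well plates, five concentrations, linear interpolation of endpoints. At the GI50, growth is halved. TGI marks complete inhibition of growth.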

Some test systems named below: ACHN renal; HOP-92 NSCLC; HT29 colon; UACC-257 melanoma; NCI-H226 lung; UO-31 renal; A498 renal; NCI-H522 lung; NCI-H23 lung; K-562 leukemia.
Common to all, as to experiment: NCI tumour cell line growth inhibition, 48 h

As for `CSC1=Nc2c(c(C)c(-c3ccccc3)n2CCCN2CCCCC2)C2=NC(=O)C[C@H](C)N12`, the GI50 in the assay with ACHN renal was 4.78 µM; in the assay with HOP-92 NSCLC, 4.1 µM; in the assay with HT29 colon it was 2.38 µM; in the assay with UACC-257 melanoma, 4.37 µM; with NCI-H226 lung it was 4.5 µM; in the assay on UO-31 renal, 6.35 µM. Besides, the GI50 in the assay on A498 renal was 2.6 µM; with NCI-H522 lung it was 2.55 µM; in the assay with NCI-H23 lung, 3.08 µM; in the assay on K-562 leukemia it was 5.08 µM. The TGI was 43.8 µM in the assay on ACHN renal; 48.9 µM in the assay on HOP-92 NSCLC; 10.9 µM with HT29 colon; 27.5 µM with UACC-257 melanoma; above 79.7 µM in the assay on NCI-H226 lung; 26 µM with UO-31 renal. Moreover, the TGI in the assay with A498 renal is 9.64 µM; in the assay on NCI-H522 lung, 9.78 µM; with NCI-H23 lung it was above 46.4 µM; in the assay on K-562 leukemia, 87.6 µM.

Take `Nc1c(-c2cn(Cc3ccccc3)c3ccccc23)[n+]([O-])c2ccccc2[n+]1[O-]`: the TGI in the assay with ACHN renal was above 100 µM; in the assay on HOP-92 NSCLC, 43.1 µM; in the assay on HT29 colon it was above 100 µM; in the assay with UACC-257 melanoma, 35.5 µM; with NCI-H226 lung it was 36.5 µM; in the assay with UO-31 renal, 38.8 µM. In addition, the TGI was 41.9 µM with A498 renal, 48.6 µM with NCI-H522 lung, 93.6 µM with NCI-H23 lung and above 100 µM with K-562 leukemia.

With `Cc1c(O)c2ccccc2oc1=O`, the TGI with ACHN renal, in the assay with HOP-92 NSCLC, in the assay with HT29 colon, in the assay with UACC-257 melanoma, in the assay with NCI-H226 lung and with UO-31 renal was above 100 µM each time. For the same compound, the TGI in the assay with A498 renal, with NCI-H522 lung, in the assay on NCI-H23 lung and in the assay with K-562 leukemia was above 100 µM each time.

As to `C#CCNC(=O)N(CC#C)N=O`, the TGI in the assay with ACHN renal, in the assay with HOP-92 NSCLC, in the assay on HT29 colon, in the assay on UACC-257 melanoma, in the assay with NCI-H226 lung and in the assay with UO-31 renal was above 100 µM throughout. In addition, the TGI is above 100 µM with A498 renal, 41.6 µM in the assay on NCI-H522 lung, above 100 µM with NCI-H23 lung and above 100 µM in the assay on K-562 leukemia.

For the compound `Cc1cc(=O)[nH]c(N/N=C/c2cc(Br)ccc2O)n1`, the GI50 in the assay on ACHN renal was 0.927 µM; with HOP-92 NSCLC, 19.3 µM; in the assay on HT29 colon, 13.3 µM; with UACC-257 melanoma, 0.383 µM; in the assay on NCI-H226 lung it was 2.1 µM; in the assay with UO-31 renal it was 0.435 µM. For the same compound, the GI50 with A498 renal was 4.06 µM; with NCI-H522 lung, 3.37 µM; in the assay on NCI-H23 lung, 0.481 µM; in the assay with K-562 leukemia, 0.605 µM. The TGI in the assay with ACHN renal was above 100 µM; in the assay on HOP-92 NSCLC it was above 100 µM; in the assay with HT29 colon it was above 100 µM; in the assay on UACC-257 melanoma, 9.12 µM; in the assay on NCI-H226 lung, above 100 µM; in the assay on UO-31 renal, 3.21 µM. Also, the TGI is 25.4 µM with A498 renal, 22 µM with NCI-H522 lung, above 100 µM in the assay on NCI-H23 lung and above 100 µM with K-562 leukemia.

For `C=C(C)[C@@H]1CC[C@]2(COCCC#N)CC[C@]3(C)[C@H](CC[C@@H]4[C@@](C)(CCCNCCC#N)[C@H](C(=C)C)CC[C@]43C)[C@@H]12`, the GI50 with ACHN renal is 13.2 µM; in the assay on HOP-92 NSCLC, 7.03 µM; with HT29 colon, 7.88 µM; in the assay with UACC-257 melanoma it was 19.8 µM; in the assay with NCI-H226 lung it was 8.88 µM; in the assay on UO-31 renal, 10.7 µM. For the same compound, the GI50 was above 50 µM with A498 renal, 8.55 µM in the assay with NCI-H522 lung, 16.5 µM in the assay with NCI-H23 lung and 8.94 µM with K-562 leukemia. The TGI with ACHN renal was above 50 µM; in the assay with HOP-92 NSCLC, 28.5 µM; in the assay with HT29 colon it was 19.8 µM; with UACC-257 melanoma, above 50 µM; with NCI-H226 lung it was 18.5 µM; in the assay with UO-31 renal it was above 50 µM. Also, the TGI with A498 renal is above 50 µM; in the assay on NCI-H522 lung, 23.4 µM; in the assay on NCI-H23 lung, above 50 µM; in the assay on K-562 leukemia it was 31.6 µM.

As for `Nc1c(C(=O)c2ccc(-c3cccnc3)cc2)cnn1-c1ccc(F)cc1`, the GI50 is above 10.9 µM in the assay on ACHN renal; above 25 µM in the assay with HOP-92 NSCLC; above 21.6 µM with HT29 colon; above 22.4 µM in the assay with UACC-257 melanoma; above 16.2 µM with NCI-H226 lung; above 12.8 µM in the assay on UO-31 renal. Further, the GI50 was above 18.8 µM with A498 renal, above 12.7 µM in the assay with NCI-H522 lung, above 22.7 µM in the assay with NCI-H23 lung and above 25 µM in the assay with K-562 leukemia. Moreover, the TGI in the assay with ACHN renal was above 16 µM; in the assay on HOP-92 NSCLC, above 25 µM; in the assay on HT29 colon, above 25 µM; in the assay on UACC-257 melanoma, above 25 µM; in the assay with NCI-H226 lung, above 25 µM; in the assay on UO-31 renal, above 22 µM. The TGI with A498 renal is above 25 µM; in the assay on NCI-H522 lung, above 23.1 µM; with NCI-H23 lung it was above 25 µM; in the assay with K-562 leukemia it was above 25 µM.

Consider `CCOC(=O)C1SC(=Nc2cccc(Cl)c2C)N=C1C` (stereo not given), for which the TGI with ACHN renal was 77.5 µM; with HOP-92 NSCLC it was 30.4 µM; with HT29 colon, 32.6 µM; in the assay on UACC-257 melanoma, above 10 µM; with NCI-H226 lung, 72.6 µM; in the assay on UO-31 renal it was 78.9 µM. The TGI is above 100 µM in the assay on A498 renal, 35.2 µM in the assay with NCI-H522 lung, above 10 µM in the assay on NCI-H23 lung and 89 µM with K-562 leukemia.

`COC(=O)[C@@H](C)C[C@H](Cc1cn(C)c2ccccc12)NC(=O)c1csc([C@@H](C[C@H](C(C)C)N(C)C(=O)[C@@H](NC(=O)[C@H]2CCCCN2C)C(C)C)OC(C)=O)n1`: the GI50 in the assay with ACHN renal is 0.153 µM; in the assay with HOP-92 NSCLC, 0.0163 µM; in the assay with HT29 colon, 0.00632 µM; in the assay with UACC-257 melanoma it was above 16.7 µM; in the assay with NCI-H226 lung, 0.0983 µM; in the assay with UO-31 renal, 0.169 µM. For the same compound, the GI50 in the assay with A498 renal is 0.0456 µM; in the assay on NCI-H522 lung, 0.00303 µM; with NCI-H23 lung, 0.0718 µM; in the assay with K-562 leukemia, 0.00547 µM. Besides, the TGI is above 16.7 µM with ACHN renal; 4.02 µM with HOP-92 NSCLC; above 6.31 µM with HT29 colon; above 16.7 µM with UACC-257 melanoma; above 12 µM with NCI-H226 lung; above 16.7 µM with UO-31 renal. Further, the TGI with A498 renal was 1.12 µM; in the assay on NCI-H522 lung, 0.0108 µM; in the assay on NCI-H23 lung, above 16.7 µM; in the assay on K-562 leukemia, above 16.7 µM.
